# Measured values: patent US20080220416A1, “Compositions for Inhibiting Cell Growth and Inducing Apoptosis in Cancer Cells and Methods of Use Thereof” (THE BOARD OF TRUSTEES OF THE UNIVERSITY OF ILLINOI, priority 2004, published 2008)
# Square brackets hold non-standard residues; d marks the D form. Peptide text beside a SMILES is read from it. * marks the point of attachment. Nle = CCCC[C@H](N)C(=O)O; Cbz = O=C(OCc1ccccc1)*
# Assays:
# C8161 melanoma tumors = test: C8161 melanoma xenograft in Nude mice, peri-tumoral bortezomib
# normal human melanocytes = test: Apoptosis and cell cycle of normal human melanocytes treated with z-Leu-Leu-Nle-CHO; assay type: cell-based
# Experimental: The effect of z-Leu-Leu-Nle-CHO on apoptosis was tested in vitro using normal human melanocytes and several melanoma cell cultures. Prior to testing, cutaneous (C8161, SK-MeI-28, SK-MeI-100, SK-MeI-5, C81-61), uveal or ocular (MUM2B, MUM2C, OCM-1A), and pulmonary metastases (RJ002L) melanoma cell lines were maintained in RPMI supplemented with 10% FBS. Normal human melanocytes were isolated from neonatal foreskins as previously described (Qin J et al., 2004, Mol Cancer Ther 3:895-902) and cultured with medium 154 containing growth supplements (Cascade Biologics, Portland, Oreg.).
# To assess the effect of z-Leu-Leu-Nle-CHO on the cell lines, the cells were grown in suitable culture media. Highly proliferating cells (i.e., cells that had reached approximately 30% confluency) were exposed to z-Leu-Leu-Nle-CHO as described below. […]
# Following treatment with z-Leu-Leu-Nle-CHO, the melanoma and melanocyte cell cultures were assayed for apoptotic cells using the APO TARGET Annexin V FITC staining kit (Biosource, Camarillo, Calif.) according to the manufacturer's instructions followed by flow cytometric analysis using FACScaliber (Becton Dickinson, Palo Alto, Calif.) as described in Qin, J. et al., 2001, Nat Med 7:385-386. In some cases, cell cycle and apoptosis analysis was measured using propidium iodide staining and flow cytometry as described. […]
# [1] = tested on: MDA-MB-231 breast cancer cells; test: z-Leu-Leu-Nle-CHO plus Paclitaxel, growth inhibition of MDA-MB-231 cells; assay type: cell-based, human; conditions: 0-0.8 μM with Paclitaxel, 48 h
# Experimental: Three different types of breast cancer cells were contacted with varying concentrations of z-Leu-Leu-Nle-CHO (0-0.8 μM) and the mitotic poison Paclitaxel (0.01-1 μM). MDA-MB231 cells were obtained from ATCC (Rockville, Md.). T47D:C42 and T47D:A18 cells were a kind gift of Debra Tonetti (University of Illinois-Chicago). MDA-MB231 cells were cultured in DMEM medium with 10% FBS. T47D:C42 and T47D:A18 cells were propagated in RPMI 1640 with 10% FBS, 100 μM non-essential amino acid and 6 ng/ml insulin. Gamma-secretase inhibitor z-Leu-Leu-Nle-CHO (Calbiochem 565750) was dissolved in DMSO, aliquoted and stored at −80° C. Paclitaxel (Sigma, St. Louis Mo.) was dissolved in DMSO, aliquoted and stored at −80° C.
# To determine whether z-Leu-Leu-Nle-CHO treatment potentiates the effect of Paclitaxel on human breast cancer cells, MDA-MB231, T47D:C42 and T47D:A18 cells were treated for 48 h with 0-0.8 μM z-Leu-Leu-Nle-CHO and various concentrations of Paclitaxel (0.008-1 μM) Following the z-Leu-Leu-Nle-CHO and Paclitaxel treatment, the cells were tested for growth inhibition as described above in Example 13.
# [2] = tested on: MDA-MB231 breast cancer cells; test: Extracellular matrix invasion of MDA-MB231 cells (Matrigel Invasion Chambers); assay type: cell-based, human; conditions: siRNA transfection, 22 hours
# Experimental: Cytotoxicity and growth of transfected cells were estimated by a standard assay used for cancer drug screening, through the total amount of TCA-precipitated cell proteins after drug treatment (Likhitwitayawuid, K et al., 1993, J Nat Prod 56:30-38): 200 μl of cell suspension (10^5 cells/ml) were added to each well in a 96-well plate. After incubation at, 37° C., in 5% CO2 (30 minutes to 72 hours depending on the time course chosen), 50 μl 50% trichloroacetic acid was added to each well. After incubation at 4° C. for 1 hour, precipitates were washed with water 4-5 times and air dried overnight. One hundred μl of SRB solution (0.4% sulforhodamine B in 1% acetic acid, filtered before use) was added to each well for 30 minutes. Wells were washed with 1% acetic acid 4-5 times and air dried. Two hundred μl 10 mM Tris base was added to each well. Plates were shaken for 5-10 minutes and OD at 490 nm (OD490) was recorded via ELISA reader. To assay matrix invasion, 300 μl of cell suspension (10^6 cells/mL in serum-free medium) were added to invasion inserts (BioCoat Matrigel Invasion Chambers, Becton Dickinson, Bedford, Mass.) and incubated for 22 hours at 37° C., 5% CO2. Cells were stained with 0.9% crystal violet in 10% ethanol for 20 minutes. Inserts were dipped in water several times and air dried. After removal of the non-invading cells from the interior of the inserts, stained invading cells were lysed in 10% acetic acid and OD595 was determined.
# Notch silencing was confirmed by Western blot as described above in Example 15 using commercial goat polyclonal antibodies from Santa Cruz Biotechnology to Notch-1 (C-20, Cat# sc-6014 S). For the Western blot analyses, MDA-MB231 cells were treated with 25 μM IL-X for 48 h or with 0.5, 1 or 2 μM z-Leu-Leu-Nle-CHO for 24 h. Cytotoxicity and matrix invasion assays were performed as described above in Example 15. For the cytotoxicity assays, MDA-MB231 cells were treated with […] IL-X for up to 3 days or with 0-20 μM z-Leu-Leu-Nle-CHO for up to 4 days. […]
compound,measurement,setting,value
"CC(C)C[C@H](NC(=O)[C@H](Cc1ccccc1)NC(=O)c1cnccn1)B(O)O [bortezomib, N-(2-pyrazine)carbonyl-L-phenylalanine-L-leucine boronic acid]",tumor growth,"C8161 melanoma tumors; 1.25 mg/kg or 2.5 mg/kg, four peri-tumoral injections, compared to PBS",regression of melanoma tumors occurred
same,tumor weight,"C8161 melanoma tumors; 1.25 mg/kg versus PBS, day 20",significant (p<0.01) reduction in tumor weight
same,histological appearance of tumor (H&E),C8161 melanoma tumors; 2.5 mg/kg,scattered apoptotic C8161 cells are present
same,tumor weight,C8161 melanoma tumors; 2.5 mg/kg dose compared with 1.25 mg/kg,no further reduction was apparent
"CCCC[C@@H](C=O)NC(=O)[C@H](CC(C)C)NC(=O)[C@H](CC(C)C)NC(=O)OCc1ccccc1 [z-Leu-Leu-Nle-CHO, N-benzyloxycarbonyl-leucyl-leucyl-norleucinal] (Cbz-Leu-Leu-[Nle]-aldehyde)",cell cycle effect,normal human melanocytes; 10 μM for 24 h,induce a G2/M growth arrest
same,induction of apoptosis,"normal human melanocytes; MC004, MC007, 1-10 μM for 18 h",did not significantly induce apoptosis
same,effect on Paclitaxel cell growth inhibition,[1],moderately potentiated the effects of Paclitaxel on cell growth inhibition
5′-AAGTGTCTGAGGCCAGCAAGA-3′ [Notch-1 siRNA],extracellular matrix invasion,[2],significantly inhibited extracellular matrix invasion
